Assay results from US20230338285A1, “PHARMACEUTICAL COMPOSITION COMPRISING HYDROXYCHLOROQUINE AND USES THEREOF” (priority 2020, published 2023).
Read-outs that look alike come from different tables or passages of the source.

Tests used:
2019-nCoV = conditions: block of COVID-19 infection in vitro, Wang et al.; read-out: half-maximal effective concentration (EC50); cited from earlier work
[1] = Solubility in propylene glycol and solvent mixtures by LC-HR-MS; format: physicochemical; conditions: for Accuracy (ratio of measured concentration to calculated concentration): propylene glycol, 40° C.
Protocol: Chloroquine and hydroxychloroquine were synthesized according to published procedures at WuXi AppTec (Wuhan, China). […] The solubility of HCQ in propylene glycol (PG) was evaluated by preparing formulations at various concentrations and assessing their solubility by performing liquid chromatography-high resolution-mass spectrometry (LC-HR-MS). The solubility of HCQ in PG was measured at 40° C. and atmospheric pressure (~100 kPa) -Table 1a.
The solubility of HCQ in different solvent mixtures comprising propylene glycol (PG); glycerol and/or water was evaluated by preparing formulations and assessing the solubility of HCQ by performing liquid chromatography-high resolution-mass spectrometry (LC-HR-MS) as shown in Table 1b.

[2] = Aerosol particle size distribution (Aerodynamic Particle Sizer); format: physicochemical; conditions: thermal aerosol from 100 mg/mL in propylene glycol, heater 200-220° C.
Protocol: A liquid formulation containing a solution of hydroxychloroquine in propylene glycol at a concentration of 100 mg/mL was prepared and filled into a consumable cartridge.
The liquid formulation was nebulized using a device comprising a mesh heating element as described in WO2018153608 (A1). Aerosol from the liquid formulation was generated by thermal aerosolization. The temperature of the heater was maintained between 200-220° C. A programmable dual syringe pump (PDSP) with a simulated inhalation regimen of 55 mL delivered in 3 sec puff duration and 30 sec interval (including the subsequent discharge from the pump during piston down stroke) was used to transfer the aerosol. The PDSP pump was attached to a SUPER SESI (Fossilion Technologies, Madrid, SP) interfaced with Q Exactive HF system (Thermo Fisher Scientific, Waltham, MA, USA) as shown in FIG. 2.
The particle size distribution of the aerosols was measured using the TSI 3321 Aerodynamic Particle Sizer (APS, TSI Incorporated, Shoreview, MN, USA). To reach the operational flowrate of 5 L/min and to stay within the limits of detection concerning large particle number densities obtained in the experiment, the […] was connected with a 3302A Aerosol Diluter (TSI Incorporated), upstream of the APS using a 30 cm conductive tube with a 1-cm inner diameter (FIG. 3). […]

[3] = Thermal decomposition during thermal aerosolization (LC-HR-MS); format: physicochemical; conditions: LC-HR-MS of aerosol trapped on Cambridge pad filter
Protocol: Using the described aerosol generation and characterization setup, the aerosol produced from the device was pushed through the Cambridge filter pad connected to an impinger filled with 5 mL of ethanol to assess the transfer amount of hydroxychloroquine from the liquid to the aerosol. Compound extraction from the Cambridge filter pads was performed by adding 5 mL of ethanol from the impinger and another 5 mL of fresh ethanol to the filter pad. The two fractions were combined (total volume of 10 mL) for quantification. Chemical analyses for drug solubility and transfer rate assessment were performed by liquid chromatography equipped with a HILIC BEH amide column (50 × 3 mm, 1.7 µm, Waters, Manchester, UK) coupled to high resolution accurate mass spectrometry (Vanquish Duo - Q Exactive HF system, LC-HR-MS, ThermoFisher Scientific, Waltham, MA, USA). Mobile phases were composed of acetonitrile containing 0.1% formic acid and 10 mM ammonium formate. Samples were diluted to fit the calibration curve built from 9-calibrant levels (5-100 ng/mL). A volume of 5 µL diluted solution was injected. Mass spectrometry detection was realized in positive electrospray ionization with a mass resolution of 60,000 by scanning full scan mass from m/z 50-350.

[4] = test system: SARS-CoV-2 clinically isolated strain; conditions: cited from earlier work; for EC50: Vero cells, Yao et al.

Row | Compound | EC50 (2019-nCoV) [µM] | Solubility ([1]; Mix 1: propylene glycol 75%, glycerol 20%, water 5%) [mg/mL] | Solubility ([1]; Mix 2: propylene glycol 75%, glycerol 15%, water 10%) [mg/mL] | Solubility ([1]; Mix 3: propylene glycol 45%, glycerol 45%, water 10%) [mg/mL] | Solubility ([1]; Mix 4: propylene glycol 90%, glycerol 10%, water 0%) [mg/mL] | Solubility ([1]; Mix 5: propylene glycol 90%, glycerol 0%, water 10%) [mg/mL] | Solubility ([1]; Mix 6: propylene glycol 85%, glycerol 0%, water 15%) [mg/mL] | Solubility ([1]; Mix 7: propylene glycol 95%, glycerol 0%, water 5%) [mg/mL] | Solubility ([1]; Mix 8: propylene glycol 100, glycerol 0%, water 0%) [mg/mL] | Accuracy (ratio of measured concentration to calculated concentration) ([1]; calculated concentration 1.3 mg/mL) [%] | Accuracy (ratio of measured concentration to calculated concentration) ([1]; calculated concentration 10.2 mg/mL) [%] | Accuracy (ratio of measured concentration to calculated concentration) ([1]; calculated concentration 20.9 mg/mL) [%] | Accuracy (ratio of measured concentration to calculated concentration) ([1]; calculated concentration 40.6 mg/mL) [%] | Accuracy (ratio of measured concentration to calculated concentration) ([1]; calculated concentration 100.6 mg/mL) [%] | median aerodynamic diameter of aerosol particles [2] [µm] | decomposition during thermal aerosolization [3] | EC50 ([4]; 24 hours) [µM] | EC50 ([4]; 48 hours) [µM] | in vitro EC50 ([4]; value from Yao et al.) [µg/mL] | in vitro EC90 ([4]; value from Yao et al.) [µg/mL]
1 | CCN(CC)CCCC(C)Nc1ccnc2cc(Cl)ccc12 (centres unmarked) [chloroquine] | 1.13 | – | – | – | – | – | – | – | – | – | – | – | – | – | – | – | – | – | – | –
2 | hydroxychloroquine | – | 151 | 141 | 42 | 150 | 324 | 261 | 322 | 139 | 78 | 103 | 104 | 92 | 96 | 1.3 | no decomposition | 6.14 | 0.72 | 0.242 | 1.68
